Data taken from patent publication US7183099B2, “Inhibitors of autoinducer transporters” (Princeton University, priority 2001, dated 2007).

What was measured:
[1] = test system: V. harveyi reporter strain BB886 (Sensor 1+, Sensor 2−); test: V. harveyi BB886 luminescence stimulation bioassay; type: cell-based, Vibrio harveyi; settings: non self-stimulating sensor-1+, sensor-2− mutant (BB886)
Description: Assay for production of signaling compounds. Cell-free culture fluids from E. coli, S. typhimurium and V. harveyi strains were tested for the presence of signaling substances that could induce luminescence in the V. harveyi reporter strain BB170 or BB886. In the assays, 10 μl of cell-free culture fluids from E. coli ABI157, E. coli DH5, and S. typhimurium LT2 strains grown and harvested as described above were added to 96-well microtiter dishes. The V. harveyi reporter strain BB170 or BB886 was grown for 16 h at 30° C. with aeration in AB medium, diluted 1:5000 into fresh AB medium, and 90 µl of the diluted cells were added to the wells containing the E. coli and S. typhimurium cell-free culture fluids. Positive control wells contained 10 μl of cell-free culture fluid from strain V. harveyi BB152 (Autoinducer-1^−, Autoinducer-2^+) or V. harveyi BB120 (Autoinducer-1^+, Autoinducer-2^+). Negative control wells contained 10 μl of sterile growth medium. […] Every hour, light production was measured using a Wallac Model 1450 Microbeta Plus liquid scintillation counter in the chemiluminescence mode. The V. harveyi cell density was measured by diluting the same aliquots of cells used for measuring luminescence, spreading the dilutions onto solid LM medium (Bassler et al., 1993, supra), incubating the plates overnight at 30° C., and counting the resulting colonies the following day. […]

[2] = test system: V. harveyi reporter strain BB170 (Sensor 1−, Sensor 2+); type: cell-based, Vibrio harveyi; settings: candidates for the signal tested
Description: Cell-free culture fluids from E. coli, S. typhimurium and V. harveyi strains were tested for the presence of signaling substances that could induce luminescence in the V. harveyi reporter strain BB170 or BB886. […] Positive control wells contained 10 μl of cell-free culture fluid from strain V. harveyi BB152 (Autoinducer-1^−, Autoinducer-2^+) or V. harveyi BB120 (Autoinducer-1^+, Autoinducer-2^+). Negative control wells contained 10 μl of sterile growth medium. The microtiter dishes were shaken in a rotary shaker at 175 rpm at 30° C.
The cell density was measured by diluting the same aliquots of cells used for measuring luminescence, spreading the dilutions onto solid LM medium, incubating the plates overnight at 30° C., and counting the resulting colonies the following day. […] Cell-free culture supernatants from V. harveyi or S. typhimurium strains were added to a final concentration of 10% (v/v) at the time of the first measurement. In control experiments, 10% (v/v) of AB medium, LB medium or LB medium containing 0.5% glucose was added instead of cell-free culture fluids.

SMILES | lowest concentration to which the assay was sensitive [1] [nM] | activity (induction of luminescence expression in V. harveyi) [2]
C[C@@H](O)CC(=O)N[C@H]1CCOC1=O [AI-1, N-(3-hydroxybutanoyl)-L-homoserine lactone, reference compound] | 100 | –
O=C(O)CCC(=O)C(=O)O [-ketoglutarate, reference compound] | – | None of these compounds has activity
N[C@H]1CCOC1=O [homoserine lactone, reference compound] | – | None of these compounds has activity
CC(=O)O [acetate, reference compound] | – | None of these compounds has activity
